Calls of active or inactive are those of the source. How the calls were made is not given here.
Tested on: CCRIS mutagenicity, Ames/micronucleus/aberration tests
Test: CCRIS mutagenicity studies
[1] = Test System: AMES SALMONELLA TYPHIMURIUM, Strain/Indicator: TA98, Metabolic Activation: NONE, Method: STANDARD PLATE
[2] = Test System: AMES SALMONELLA TYPHIMURIUM, Strain/Indicator: TA100, Metabolic Activation: NONE, Method: STANDARD PLATE

Measured: mutagenic call

CCCCCCCCCCCCS
inactive: Test System: AMES SALMONELLA TYPHIMURIUM, Strain/Indicator: TA98, Metabolic Activation: HAMSTER, LIVER, S-9, AROCLOR 1254 (10%), Method: PREINCUBATION inactive; negative | Test System: AMES SALMONELLA TYPHIMURIUM, Strain/Indicator: TA98, Metabolic Activation: HAMSTER, LIVER, S-9, AROCLOR 1254, Method: STANDARD PLATE inactive; negative | Test System: AMES SALMONELLA TYPHIMURIUM, Strain/Indicator: TA98, Metabolic Activation: NONE, Method: PREINCUBATION inactive; negative | [1] inactive; negative | Test System: AMES SALMONELLA TYPHIMURIUM, Strain/Indicator: TA98, Metabolic Activation: RAT, LIVER, S-9, AROCLOR 1254 (10%), Method: PREINCUBATION inactive; negative | Test System: AMES SALMONELLA TYPHIMURIUM, Strain/Indicator: TA98, Metabolic Activation: RAT, LIVER, S-9, AROCLOR 1254, Method: STANDARD PLATE inactive; negative | Test System: AMES SALMONELLA TYPHIMURIUM, Strain/Indicator: TA100, Metabolic Activation: HAMSTER, LIVER, S-9, AROCLOR 1254 (10%), Method: PREINCUBATION inactive; negative | Test System: AMES SALMONELLA TYPHIMURIUM, Strain/Indicator: TA100, Metabolic Activation: HAMSTER, LIVER, S-9, AROCLOR 1254, Method: STANDARD PLATE inactive; negative | Test System: AMES SALMONELLA TYPHIMURIUM, Strain/Indicator: TA100, Metabolic Activation: NONE, Method: PREINCUBATION inactive; negative | [2] inactive; negative | Test System: AMES SALMONELLA TYPHIMURIUM, Strain/Indicator: TA100, Metabolic Activation: RAT, LIVER, S-9, AROCLOR 1254 (10%), Method: PREINCUBATION inactive; negative | Test System: AMES SALMONELLA TYPHIMURIUM, Strain/Indicator: TA100, Metabolic Activation: RAT, LIVER, S-9, AROCLOR 1254, Method: STANDARD PLATE inactive; negative | Test System: AMES SALMONELLA TYPHIMURIUM, Strain/Indicator: TA1535, Metabolic Activation: HAMSTER, LIVER, S-9, AROCLOR 1254 (10%), Method: PREINCUBATION inactive; negative | Test System: AMES SALMONELLA TYPHIMURIUM, Strain/Indicator: TA1535, Metabolic Activation: HAMSTER, LIVER, S-9, AROCLOR 1254, Method: STANDARD PLATE inactive; negative | Test System: AMES SALMONELLA TYPHIMURIUM, Strain/Indicator: TA1535, Metabolic Activation: NONE, Method: PREINCUBATION inactive; negative | Test System: AMES SALMONELLA TYPHIMURIUM, Strain/Indicator: TA1535, Metabolic Activation: NONE, Method: STANDARD PLATE inactive; negative | Test System: AMES SALMONELLA TYPHIMURIUM, Strain/Indicator: TA1535, Metabolic Activation: RAT, LIVER, S-9, AROCLOR 1254 (10%), Method: PREINCUBATION inactive; negative | Test System: AMES SALMONELLA TYPHIMURIUM, Strain/Indicator: TA1535, Metabolic Activation: RAT, LIVER, S-9, AROCLOR 1254, Method: STANDARD PLATE inactive; negative | Test System: AMES SALMONELLA TYPHIMURIUM, Strain/Indicator: TA1537, Metabolic Activation: HAMSTER, LIVER, S-9, AROCLOR 1254 (10%), Method: PREINCUBATION inactive; negative | Test System: AMES SALMONELLA TYPHIMURIUM, Strain/Indicator: TA1537, Metabolic Activation: HAMSTER, LIVER, S-9, AROCLOR 1254, Method: STANDARD PLATE inactive; negative | Test System: AMES SALMONELLA TYPHIMURIUM, Strain/Indicator: TA1537, Metabolic Activation: NONE, Method: PREINCUBATION inactive; negative | Test System: AMES SALMONELLA TYPHIMURIUM, Strain/Indicator: TA1537, Metabolic Activation: NONE, Method: STANDARD PLATE inactive; negative | Test System: AMES SALMONELLA TYPHIMURIUM, Strain/Indicator: TA1537, Metabolic Activation: RAT, LIVER, S-9, AROCLOR 1254 (10%), Method: PREINCUBATION inactive; negative | Test System: AMES SALMONELLA TYPHIMURIUM, Strain/Indicator: TA1537, Metabolic Activation: RAT, LIVER, S-9, AROCLOR 1254, Method: STANDARD PLATE inactive; negative | Test System: AMES SALMONELLA TYPHIMURIUM, Strain/Indicator: TA1538, Metabolic Activation: HAMSTER, LIVER, S-9, AROCLOR 1254, Method: STANDARD PLATE inactive; negative | Test System: AMES SALMONELLA TYPHIMURIUM, Strain/Indicator: TA1538, Metabolic Activation: NONE, Method: STANDARD PLATE inactive; negative | Test System: AMES SALMONELLA TYPHIMURIUM, Strain/Indicator: TA1538, Metabolic Activation: RAT, LIVER, S-9, AROCLOR 1254, Method: STANDARD PLATE inactive; negative | Test System: MOUSE LYMPHOMA, Strain/Indicator: L5178Y (TK+/TK-), Metabolic Activation: NONE, Method: SUSPENSION/PLATE inactive; negative. reevaluation of results: negative | Test System: MOUSE LYMPHOMA, Strain/Indicator: L5178Y (TK+/TK-), Metabolic Activation: RAT, LIVER, S-9, AROCLOR 1254, Method: SUSPENSION/PLATE inactive; negative. reevaluation of results: negative

CC(=O)c1cc2c(cc1C)C(C)(C)C(C)C2(C)C (configuration not stated)
inactive: Test System: AMES SALMONELLA TYPHIMURIUM, Strain/Indicator: TA97, Metabolic Activation: NONE, Method: STANDARD PLATE inactive; negative | Test System: AMES SALMONELLA TYPHIMURIUM, Strain/Indicator: TA97, Metabolic Activation: RAT LIVER S-9, AROCLOR 1254, Method: STANDARD PLATE inactive; negative | [1] inactive; negative | Test System: AMES SALMONELLA TYPHIMURIUM, Strain/Indicator: TA98, Metabolic Activation: RAT LIVER S-9, AROCLOR 1254, Method: STANDARD PLATE inactive; negative | [2] inactive; negative | Test System: AMES SALMONELLA TYPHIMURIUM, Strain/Indicator: TA100, Metabolic Activation: RAT LIVER S-9, AROCLOR 1254, Method: STANDARD PLATE inactive; negative | Test System: AMES SALMONELLA TYPHIMURIUM, Strain/Indicator: TA102, Metabolic Activation: NONE, Method: STANDARD PLATE inactive; negative | Test System: AMES SALMONELLA TYPHIMURIUM, Strain/Indicator: TA102, Metabolic Activation: RAT LIVER S-9, AROCLOR 1254, Method: STANDARD PLATE inactive; negative

From PubChem BioAssay AID1259407 (Chemical Carcinogenesis Research Information System (CCRIS), 2018)
